In patent US20220016183A1, “EXOSOME AND VARIOUS USES THEREOF” (PROSTEMICS CO., LTD., priority 2018, published 2022):

System: Dermal papilla cells, DPC
Assay: Dermal papilla cell (DPC) proliferation, CCK-8
Type: cell-based
Settings: 10 μM, 24 hours
Protocol: After dispensing a serum medium with 10,000 cells/well of papillary cells (Dermal papilla cells, DPC) in a 96-well microplate, the cells were incubated overnight at 37° C. in a CO2 incubator. […] After removing the treated material from each cell and dispensing the CCK-8 solution thereto, the cells were incubated in the CO2 incubator at 37° C. for 2 hours, and absorbance was measured at 450 nm.

Nc1cc(N2CCCCC2)nc(N)[n+]1[O-] [M1, Minoxidil]
DPC proliferation rate (%): 118.97%
